# According to PubChem BioAssay (NCI):
#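 Protocol summary: plate cells (96-well), add compound at 5 concentrations, incubate 48 h, interpolate endpoints linearly. At the GI50, growth is halved. TGI marks complete inhibition of growth.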 *1 amine or outer side, *2 acyl side, *3 side chain or, on linkers, in order; H or OH if unused. Where a SMILES comes first, the peptide text is derived from it. [ ]: non-standard residue; d: D form. The star is where a group is joined. X11 = C/C=C/CC(C)C(O)[C@H](N[*:1])C(=O)[*:2]; Decanoyl = CCCCCCCCCC(=O)*; Leu(ol) = CC(C)C[C@H](N)CO; Iva = CC[C@](C)(N)C(=O)O; Aib = CC(C)(N)C(=O)O
# Assays:
# Assay in all cases: growth of human tumour cells (NCI), 48 h
# SNB-75 CNS = tested on: SNB-75 CNS
# NCI-H226 lung = tested on: NCI-H226 lung
# SF-268 CNS = tested on: SF-268 CNS
# KM12 colon = tested on: KM12 colon
# HOP-62 NSCLC = tested on: HOP-62 NSCLC
# RPMI-8226 leukemia = tested on: RPMI-8226 leukemia
# SK-MEL-28 melanoma = tested on: SK-MEL-28 melanoma
# NCI/ADR-RES ovarian = tested on: NCI/ADR-RES ovarian
# OVCAR-4 ovarian = tested on: OVCAR-4 ovarian
# MCF7 breast = tested on: MCF7 breast
# SK-MEL-2 melanoma = tested on: SK-MEL-2 melanoma
# OVCAR-5 ovarian = tested on: OVCAR-5 ovarian
# TK-10 renal = tested on: TK-10 renal
# LOX IMVI melanoma = tested on: LOX IMVI melanoma
# U251 CNS = tested on: U251 CNS
# EKVX NSCLC = tested on: EKVX NSCLC
# CCRF-CEM leukemia = tested on: CCRF-CEM leukemia
# SN12C renal = tested on: SN12C renal
# RXF 393 renal = tested on: RXF 393 renal
# T-47D breast = tested on: T-47D breast
# ACHN renal = tested on: ACHN renal
# HCC-2998 colon = tested on: HCC-2998 colon
# NCI-H522 lung = tested on: NCI-H522 lung
# HCT-15 colon = tested on: HCT-15 colon
# SK-OV-3 ovarian = tested on: SK-OV-3 ovarian
# A498 renal = tested on: A498 renal
# MALME-3M melanoma = tested on: MALME-3M melanoma
# HL-60(TB) leukemia = tested on: HL-60(TB) leukemia
# PC-3 prostate = tested on: PC-3 prostate
# K-562 leukemia = tested on: K-562 leukemia
# SNB-19 CNS = tested on: SNB-19 CNS
# MOLT-4 leukemia = tested on: MOLT-4 leukemia
# UACC-257 melanoma = tested on: UACC-257 melanoma
# SR leukemia = tested on: SR leukemia
# CAKI-1 renal = tested on: CAKI-1 renal
# OVCAR-8 ovarian = tested on: OVCAR-8 ovarian
# NCI-H23 lung = tested on: NCI-H23 lung
# HT29 colon = tested on: HT29 colon
# SK-MEL-5 melanoma = tested on: SK-MEL-5 melanoma
# MDA-MB-231 breast = tested on: MDA-MB-231 breast
# 786-0 renal = tested on: 786-0 renal
# HOP-92 NSCLC = tested on: HOP-92 NSCLC
# OVCAR-3 ovarian = tested on: OVCAR-3 ovarian
# M14 melanoma = tested on: M14 melanoma
# UO-31 renal = tested on: UO-31 renal
# COLO 205 colon = tested on: COLO 205 colon
# IGROV1 ovarian = tested on: IGROV1 ovarian
# SF-295 CNS = tested on: SF-295 CNS
# NCI-H460 lung = tested on: NCI-H460 lung
# HS 578T breast = tested on: HS 578T breast
# HCT-116 colon = tested on: HCT-116 colon
# BT-549 breast = tested on: BT-549 breast
# UACC-62 melanoma = tested on: UACC-62 melanoma
# SW-620 colon = tested on: SW-620 colon
# MDA-MB-435 = tested on: MDA-MB-435
# SF-539 CNS = tested on: SF-539 CNS
# A549 NSCLC = tested on: A549 NSCLC
# DU-145 prostate = tested on: DU-145 prostate
smiles,measurement,setting,value
C/C=C/CC(C)C(O)[C@H](NC(=O)[C@@H]1CCCN1C(=O)[C@](C)(CC)NC(=O)CCCCCCCCC)C(=O)N[C@@](C)(CC)C(=O)N[C@@H](CCC(N)=O)C(=O)N[C@H](CCC(N)=O)C(=O)NC(C)(C)C(=O)NC(C)(C)C(=O)N[C@@H](CCC(N)=O)C(=O)N[C@H](CC(C)C)C(=O)N[C@H](CO)CC(C)C (stereo partly drawn) (Decanoyl-[Iva]P[X11][Iva]Q[dQ][Aib][Aib]Q[dL][Leu(ol)]),GI50,SNB-75 CNS,1400 nM
same,TGI,SNB-75 CNS,2800 nM
same,GI50,NCI-H226 lung,1780 nM
same,TGI,NCI-H226 lung,3830 nM
same,GI50,SF-268 CNS,1830 nM
same,TGI,SF-268 CNS,3450 nM
same,GI50,KM12 colon,1870 nM
same,TGI,KM12 colon,3570 nM
same,GI50,HOP-62 NSCLC,1630 nM
same,TGI,HOP-62 NSCLC,3270 nM
same,GI50,RPMI-8226 leukemia,2020 nM
same,TGI,RPMI-8226 leukemia,4320 nM
same,GI50,SK-MEL-28 melanoma,1700 nM
same,TGI,SK-MEL-28 melanoma,3090 nM
same,GI50,NCI/ADR-RES ovarian,1810 nM
same,TGI,NCI/ADR-RES ovarian,3480 nM
same,GI50,OVCAR-4 ovarian,2150 nM
same,TGI,OVCAR-4 ovarian,4800 nM
same,GI50,MCF7 breast,1770 nM
same,TGI,MCF7 breast,3520 nM
same,GI50,SK-MEL-2 melanoma,1770 nM
same,TGI,SK-MEL-2 melanoma,3350 nM
same,GI50,OVCAR-5 ovarian,1680 nM
same,TGI,OVCAR-5 ovarian,3070 nM
same,GI50,TK-10 renal,1750 nM
same,TGI,TK-10 renal,3270 nM
same,GI50,LOX IMVI melanoma,1740 nM
same,TGI,LOX IMVI melanoma,3260 nM
same,GI50,U251 CNS,1770 nM
same,TGI,U251 CNS,3350 nM
same,GI50,EKVX NSCLC,1740 nM
same,TGI,EKVX NSCLC,3290 nM
same,GI50,CCRF-CEM leukemia,1860 nM
same,TGI,CCRF-CEM leukemia,3650 nM
same,GI50,SN12C renal,1670 nM
same,TGI,SN12C renal,3220 nM
same,GI50,RXF 393 renal,2020 nM
same,TGI,RXF 393 renal,3640 nM
same,GI50,T-47D breast,1590 nM
same,TGI,T-47D breast,3400 nM
same,GI50,ACHN renal,1800 nM
same,TGI,ACHN renal,3290 nM
same,GI50,HCC-2998 colon,1780 nM
same,TGI,HCC-2998 colon,3420 nM
same,GI50,NCI-H522 lung,1770 nM
same,TGI,NCI-H522 lung,3370 nM
same,GI50,HCT-15 colon,1860 nM
same,TGI,HCT-15 colon,3670 nM
same,GI50,SK-OV-3 ovarian,1930 nM
same,TGI,SK-OV-3 ovarian,3950 nM
same,GI50,A498 renal,1900 nM
same,TGI,A498 renal,3440 nM
same,GI50,MALME-3M melanoma,1520 nM
same,TGI,MALME-3M melanoma,2920 nM
same,GI50,HL-60(TB) leukemia,1740 nM
same,TGI,HL-60(TB) leukemia,3390 nM
same,GI50,PC-3 prostate,1760 nM
same,TGI,PC-3 prostate,3260 nM
same,GI50,K-562 leukemia,1950 nM
same,TGI,K-562 leukemia,3970 nM
same,GI50,SNB-19 CNS,1740 nM
same,TGI,SNB-19 CNS,3180 nM
same,GI50,MOLT-4 leukemia,1930 nM
same,TGI,MOLT-4 leukemia,3640 nM
same,GI50,UACC-257 melanoma,1740 nM
same,TGI,UACC-257 melanoma,3260 nM
same,GI50,SR leukemia,1610 nM
same,TGI,SR leukemia,3430 nM
same,GI50,CAKI-1 renal,1690 nM
same,TGI,CAKI-1 renal,3110 nM
same,GI50,OVCAR-8 ovarian,2040 nM
same,TGI,OVCAR-8 ovarian,4240 nM
same,GI50,NCI-H23 lung,1800 nM
same,TGI,NCI-H23 lung,3420 nM
same,GI50,HT29 colon,1880 nM
same,TGI,HT29 colon,3720 nM
same,GI50,SK-MEL-5 melanoma,1780 nM
same,TGI,SK-MEL-5 melanoma,3250 nM
same,GI50,MDA-MB-231 breast,1780 nM
same,TGI,MDA-MB-231 breast,3250 nM
same,GI50,786-0 renal,1810 nM
same,TGI,786-0 renal,3430 nM
same,GI50,HOP-92 NSCLC,1620 nM
same,TGI,HOP-92 NSCLC,3250 nM
same,GI50,OVCAR-3 ovarian,1880 nM
same,TGI,OVCAR-3 ovarian,3440 nM
same,GI50,M14 melanoma,1800 nM
same,TGI,M14 melanoma,3370 nM
same,GI50,UO-31 renal,1540 nM
same,TGI,UO-31 renal,2910 nM
same,GI50,COLO 205 colon,1960 nM
same,TGI,COLO 205 colon,3810 nM
same,GI50,IGROV1 ovarian,1790 nM
same,TGI,IGROV1 ovarian,3390 nM
same,GI50,SF-295 CNS,1740 nM
same,TGI,SF-295 CNS,3300 nM
same,GI50,NCI-H460 lung,1840 nM
same,TGI,NCI-H460 lung,3380 nM
same,GI50,HS 578T breast,1800 nM
same,TGI,HS 578T breast,3480 nM
same,GI50,HCT-116 colon,1890 nM
same,TGI,HCT-116 colon,3570 nM
same,GI50,BT-549 breast,1800 nM
same,TGI,BT-549 breast,3360 nM
same,GI50,UACC-62 melanoma,1660 nM
same,TGI,UACC-62 melanoma,3050 nM
same,GI50,SW-620 colon,1900 nM
same,TGI,SW-620 colon,3590 nM
same,GI50,MDA-MB-435,1770 nM
same,TGI,MDA-MB-435,3170 nM
same,GI50,SF-539 CNS,1750 nM
same,TGI,SF-539 CNS,3150 nM
same,GI50,A549 NSCLC,1910 nM
same,TGI,A549 NSCLC,3920 nM
same,GI50,DU-145 prostate,1790 nM
same,TGI,DU-145 prostate,3180 nM
